Assays:
[1] = target: T1, Serine protease 1 (Bos taurus, UniProt P00760); experiment: Enzyme Inhibition Assay; details: pH 7.4; 22 °C
T1 sequence (P00760 whole entry): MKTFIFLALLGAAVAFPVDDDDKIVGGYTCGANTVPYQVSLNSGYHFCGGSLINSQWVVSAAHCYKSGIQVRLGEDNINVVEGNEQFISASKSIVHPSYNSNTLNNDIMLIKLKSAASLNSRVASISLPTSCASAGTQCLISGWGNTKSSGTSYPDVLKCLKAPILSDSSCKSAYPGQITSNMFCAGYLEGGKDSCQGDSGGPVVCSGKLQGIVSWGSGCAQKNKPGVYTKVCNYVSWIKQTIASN
Method: (§1) The apparent Ki values were then calculated according to the Cheng-Prusoff equation: Ki = IC50/1 + [S]/Km.

[2] = target: T2, Coagulation factor VII (Homo sapiens, UniProt P08709); experiment: Enzyme Inhibition Assay; details: pH 7.4; 22 °C
T2 sequence (P08709 whole entry): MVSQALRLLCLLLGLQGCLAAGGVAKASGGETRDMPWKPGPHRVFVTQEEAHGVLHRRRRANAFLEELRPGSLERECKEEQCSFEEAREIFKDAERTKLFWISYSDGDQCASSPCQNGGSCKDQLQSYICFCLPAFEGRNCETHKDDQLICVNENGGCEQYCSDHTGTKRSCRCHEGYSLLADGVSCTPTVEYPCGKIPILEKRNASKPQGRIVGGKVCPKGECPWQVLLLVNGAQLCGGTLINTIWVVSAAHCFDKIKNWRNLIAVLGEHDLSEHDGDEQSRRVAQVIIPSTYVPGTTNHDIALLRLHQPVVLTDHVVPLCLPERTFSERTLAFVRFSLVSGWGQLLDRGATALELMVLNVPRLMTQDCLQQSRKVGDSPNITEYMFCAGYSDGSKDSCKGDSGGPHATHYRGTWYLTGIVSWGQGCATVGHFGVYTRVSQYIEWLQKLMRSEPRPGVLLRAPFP
Method: as §1

SMILES: Nc1ccc2[nH]c(-c3cc(CC(=O)O)cc(-c4cccc([N+](=O)[O-])c4)c3O)nc2n1 [2-(3-{5-amino-1H-imidazo[4,5-b]pyridin-2-yl}-4-hydroxy-5-(3-nitrophenyl)phenyl)acetic acid]
- Ki [1]: > 150 µM

SMILES: CS(=O)(=O)c1cccc(-c2cc(CC(=O)O)cc(-c3cc4nc(N)ccc4[nH]3)c2O)c1 [2-(3-{5-amino-1H-pyrrolo[3,2-b]pyridin-2-yl}-4-hydroxy-5-(3-methanesulfonylphenyl)phenyl)acetic acid]
- Ki [2]: 7.4 µM

SMILES: NC(=O)Nc1cccc(-c2cc(CC(=O)O)cc(-c3cc4nc(N)ccc4[nH]3)c2O)c1 [2-(3-{5-amino-1H-pyrrolo[3,2-b]pyridin-2-yl}-5-[3-(carbamoylamino)phenyl]-4-hydroxyphenyl)acetic acid]
- Ki [2]: 12 µM

SMILES: CN(C)CCNC(=O)NCc1cccc(-c2cc(CC(=O)O)cc(-c3cc4nc(N)ccc4[nH]3)c2O)c1 [2-(3-{5-amino-1H-pyrrolo[3,2-b]pyridin-2-yl}-5-{3-[({[2-(dimethylamino)ethyl]carbamoyl}amino)methyl]phenyl}-4-hydroxyphenyl)acetic acid]
- Ki [2]: 1.4 µM

SMILES: O=C(O)Cc1cc(-c2cccc([N+](=O)[O-])c2)c(O)c(-c2nc3ccccc3[nH]2)c1 [2-[3-(1H-1,3-benzodiazol-2-yl)-4-hydroxy-5-(3-nitrophenyl)phenyl]acetic acid]
- Ki [1]: > 150 µM

From BindingDB's records for doi:10.1016/j.bmcl.2006.01.017 (Celera, 2006)
